# Target: T1, Bovine thymus 1α,25-dihydroxy vitamin D3 receptor (Bos taurus, UniProt Q28037)
# T1 construct: Bovine thymus 1α,25-dihydroxy vitamin D3 receptor was purchased from YAMASA BIOCHEMICAL; purchased YAMASA BIOCHEMICAL (Choshi, Chiba, Japan); host or cells: bovine thymus (tissue preparation)
# T1 sequence (Q28037 1-426): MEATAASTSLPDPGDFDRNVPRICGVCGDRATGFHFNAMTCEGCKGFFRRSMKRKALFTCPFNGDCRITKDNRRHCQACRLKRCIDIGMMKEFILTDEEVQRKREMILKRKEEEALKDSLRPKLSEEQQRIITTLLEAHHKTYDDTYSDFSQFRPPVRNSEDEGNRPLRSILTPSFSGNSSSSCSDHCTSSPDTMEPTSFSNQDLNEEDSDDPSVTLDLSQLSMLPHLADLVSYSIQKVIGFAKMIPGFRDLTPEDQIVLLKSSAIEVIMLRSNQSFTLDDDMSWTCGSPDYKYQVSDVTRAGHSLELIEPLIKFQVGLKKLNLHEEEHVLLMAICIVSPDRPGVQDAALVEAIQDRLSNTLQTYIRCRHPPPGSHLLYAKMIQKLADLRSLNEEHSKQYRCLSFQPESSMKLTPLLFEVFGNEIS
# Assay: Assay for binding to vitamin D receptor (VDR); displacement of [3H]-1α,25-dihydroxy vitamin D3
# Conditions: relative value, with that of 1α,25-dihydroxy vitamin D3 taken as 100; [3H]-1α,25-dihydroxy vitamin D3 at 0.1 nM, overnight at 4°C
# Procedure: Test example 1: Assay for binding to vitamin D receptor (VDR)
# Bovine thymus 1α,25-dihydroxy vitamin D3 receptor was purchased from YAMASA BIOCHEMICAL (Choshi, Chiba, Japan) and dissolved in 0.05 M phosphate buffer (pH 7.4) containing 0.3M KCl and 5mM dithiothreitol just before use. Aliquots (500 µl, 0.23 mg protein) of the receptor solution and ethanol solutions (50 µl) of 1α,25-dihydroxy vitamin D3 or derivatives (compounds of the present invention) at various concentrations were combined, and pre-incubated at 25°C for 60 minutes. To the resultant receptor mixtures, [^3H]-1α,25-dihydroxy vitamin D3 was added at 0.1 nM, followed by standing overnight at 4°C. The mixtures were treated with dextran coated charcoal for 30 minutes at 4°C to separate the bound arid free forms of [^3H]-1α,25-dihydroxy vitamin D3, and centrifuged at 3000 rpm for ten minutes. Each of the resultant supernatants (500 µl) was mixed with ACS-II (9.5 ml) (AMERSHAM, England) for radioactivity measurement.
# The binding property of the compounds of the present invention was expressed in relative values, with that of 1α,25-dihydroxy vitamin D3 taken as 100. (Table 1)
row,Structure (SMILES),Binding property
1,"C=C1/C(=C\C=C2/CCC[C@]3(C)[C@@H]([C@H](C)CCCC(C)(C)O)CC[C@@H]23)C[C@@](C)(O)C[C@@H]1O [3-Me-(1α,3β)-dihydroxy vitamin D3]",18
2,"C=C1/C(=C\C=C2/CCC[C@]3(C)[C@@H]([C@H](C)CCCC(C)(C)O)CC[C@@H]23)C[C@@](C)(O)C[C@H]1O [3-Me-(1β,3β)-dihydroxy vitamin D3, 3-methyl-1β,3β-dihydroxy vitamin D3]",< 0.1
3,"C=C1/C(=C\C=C2/CCC[C@]3(C)[C@@H]([C@H](C)CCCC(C)(C)O)CC[C@@H]23)C[C@](C)(O)C[C@@H]1O [3-Me-(1α,3α)-dihydroxy vitamin D3]",< 0.1
4,"C=C1/C(=C\C=C2/CCC[C@]3(C)[C@@H]([C@H](C)CCCC(C)(C)O)CC[C@@H]23)C[C@](C)(O)C[C@H]1O [3-Me-(1β,3α)-dihydroxy vitamin D3, 3-methyl-1β,3α-dihydroxy vitamin D3]",< 0.1
